Assay results published in patent publication US7271174B2, “Metabolites of tricyclic amides useful for inhibition of G-protein function and methods of treatment of proliferative diseases” (Schering Corporation, priority 2003, dated 2007).

Biological target: purified human farnesyl protein transferase (Homo sapiens, UniProt P49354+P49356)
Assay: (H-Ras) Farnesyl Transferase Inhibition assay
Format: biochemical
Details: transfer of [3H] farnesyl from [3H] farnesyl pyrophosphate to biotin-CVLS peptide; 37° C., 60 minutes; SPA beads
Method: Assay Conditions for (H-Ras) FPT
FPT activity was determined by measuring the transfer of [^3H] farnesyl from [^3H] farnesyl pyrophosphate to a biotinylated peptide derived from the C-terminus of H-Ras (biotin-CVLS). […] The reaction mixture was incubated in a Vortemp shaking incubator at 37° C., 45 RPM for 60 minutes and stopped with 150 μL of 0.25 M EDTA containing 0.5% BSA and 1.3 mg/ml Streptavidin SPA beads. […] Percent inhibition was calculated relative to the vehicle control.

IC50 [nM] | SMILES
2.6 | NC(=O)N1CC=C(CC(=O)N2CCC([C@H]3c4ncc(Br)cc4CCc4cc(Cl)cc(Br)c43)CC2)CC1 [Compound 8, (+)-4-[2-[4-(3,10-dibromo-8-chloro-6,11-dihydro-5H-benzo[5,6]cyclohepta[1,2-b]pyridin-11(R)-yl)-1-piperidinyl]-2-oxoethyl]-3,4-didehydro-1-piperidine-carboxamide]
23.3 | NC(=O)N1CCC(=CC(=O)N2CCC([C@H]3c4ncc(Br)cc4CCc4cc(Cl)cc(Br)c43)CC2)CC1 [Compound 9, (+)-4-[2-[4-(3,10-Dibromo-8-chloro-6,11-dihydro-5H-benzo[5,6]cyclohepta[1,2-b]pyridin-11(R)-yl)-1-piperidinyl]-2-oxoethylidene]-1-piperidinecarboxamide]
